Experimental data published in PubChem BioAssay (NCI).
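Five concentrations, 48 hours, 96-well plates. GI50: concentration for 50% inhibition of growth. TGI denotes the concentration required for complete inhibition of growth.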

Experiments:
Experiment in all cases: NCI anticancer screen, dose series, 48 h
PC-3 prostate = system: PC-3 prostate
MOLT-4 leukemia = system: MOLT-4 leukemia
UO-31 renal = system: UO-31 renal
NCI-H460 lung = system: NCI-H460 lung
SK-OV-3 ovarian = system: SK-OV-3 ovarian
IGROV1 ovarian = system: IGROV1 ovarian
HOP-92 NSCLC = system: HOP-92 NSCLC
SK-MEL-2 melanoma = system: SK-MEL-2 melanoma
HCC-2998 colon = system: HCC-2998 colon
A498 renal = system: A498 renal

SMILES: O=C1NN(C2=NNC3(C(=O)N2)c2ccccc2-c2ccccc23)C(c2ccccc2)=N/C1=C/c1ccc(O)cc1
- GI50 (PC-3 prostate): 56.3 µg/mL
- TGI (PC-3 prostate): > 150 µg/mL
- GI50 (MOLT-4 leukemia): 15 µg/mL
- TGI (MOLT-4 leukemia): 15 µg/mL
- GI50 (UO-31 renal): 48.9 µg/mL
- TGI (UO-31 renal): > 150 µg/mL
- GI50 (NCI-H460 lung): 57.6 µg/mL
- TGI (NCI-H460 lung): > 150 µg/mL
- GI50 (SK-OV-3 ovarian): 25.6 µg/mL
- TGI (SK-OV-3 ovarian): > 150 µg/mL
- GI50 (IGROV1 ovarian): 15 µg/mL
- TGI (IGROV1 ovarian): 15 µg/mL

SMILES: O=C(N/N=C\c1cccc(O)c1)c1ccncc1
- TGI (PC-3 prostate): > 100 µM
- TGI (HOP-92 NSCLC): > 100 µM
- TGI (SK-MEL-2 melanoma): > 100 µM
- TGI (MOLT-4 leukemia): > 100 µM
- TGI (UO-31 renal): > 100 µM
- TGI (HCC-2998 colon): > 100 µM
- TGI (A498 renal): > 100 µM
- TGI (NCI-H460 lung): > 100 µM
- TGI (IGROV1 ovarian): > 100 µM

SMILES: Cc1nc2ccccc2n1C(=O)c1c(F)c(F)c(F)c(F)c1F
- TGI (PC-3 prostate): 71.4 µM
- TGI (HOP-92 NSCLC): 27.9 µM
- TGI (SK-MEL-2 melanoma): 46.6 µM
- TGI (MOLT-4 leukemia): 27.1 µM
- TGI (UO-31 renal): 33.9 µM
- TGI (HCC-2998 colon): 34.2 µM
- TGI (A498 renal): 57 µM
- TGI (NCI-H460 lung): 52 µM
- TGI (SK-OV-3 ovarian): 62 µM
- TGI (IGROV1 ovarian): 44.8 µM

SMILES: C=CC1(C)CCC2=C(CCC3C(C)(C(=O)OC)CCCC23C)C1=O (centres undefined)
- TGI (SK-MEL-2 melanoma): 33.9 µM
- TGI (UO-31 renal): 42.8 µM
- TGI (A498 renal): 28.4 µM
- TGI (NCI-H460 lung): 36.5 µM
- TGI (SK-OV-3 ovarian): 34.4 µM
- TGI (IGROV1 ovarian): 37.1 µM

SMILES: Cn1c(=O)c2[nH]c(CCCCC(=O)O)nc2n(C)c1=O
- TGI (PC-3 prostate): > 100 µM
- TGI (HOP-92 NSCLC): > 100 µM
- TGI (SK-MEL-2 melanoma): > 100 µM
- TGI (MOLT-4 leukemia): > 100 µM
- TGI (UO-31 renal): > 100 µM
- TGI (HCC-2998 colon): > 100 µM
- TGI (A498 renal): > 100 µM
- TGI (NCI-H460 lung): > 100 µM
- TGI (IGROV1 ovarian): > 100 µM

SMILES: Clc1ccccc1/C=C/c1cscn1
- TGI (SK-MEL-2 melanoma): > 100 µM
- TGI (MOLT-4 leukemia): > 100 µM
- TGI (UO-31 renal): > 100 µM
- TGI (HCC-2998 colon): > 100 µM
- TGI (A498 renal): > 100 µM
- TGI (NCI-H460 lung): > 100 µM
- TGI (SK-OV-3 ovarian): > 100 µM

SMILES: CCOC(=O)CN=C1NNS(=O)(=O)c2ccccc21
- TGI (PC-3 prostate): > 100 µM
- TGI (HOP-92 NSCLC): > 100 µM
- TGI (MOLT-4 leukemia): > 100 µM
- TGI (UO-31 renal): > 100 µM
- TGI (HCC-2998 colon): > 100 µM
- TGI (A498 renal): > 100 µM
- TGI (NCI-H460 lung): > 100 µM
- TGI (SK-OV-3 ovarian): > 100 µM
- TGI (IGROV1 ovarian): > 100 µM

SMILES: C=C(C)C(=O)OC1CCC2(C)C(CCC3C2CCC2(C)C(c4ccc(=O)oc4)CC4OC432)C1 (centres undefined)
- TGI (HOP-92 NSCLC): 9.96 µM
- TGI (SK-MEL-2 melanoma): 10.2 µM
- TGI (MOLT-4 leukemia): 15.5 µM
- TGI (UO-31 renal): 35.8 µM
- TGI (HCC-2998 colon): 17.8 µM
- TGI (A498 renal): 21.8 µM
- TGI (NCI-H460 lung): 7.99 µM
- TGI (SK-OV-3 ovarian): 99.8 µM
- TGI (IGROV1 ovarian): 20.5 µM

SMILES: CCOC(=O)C(O)(NC(=O)c1ccc(F)cc1)C(F)(F)F (centres undefined)
- TGI (PC-3 prostate): > 100 µM
- TGI (HOP-92 NSCLC): > 100 µM
- TGI (SK-MEL-2 melanoma): > 100 µM
- TGI (MOLT-4 leukemia): > 100 µM
- TGI (UO-31 renal): > 100 µM
- TGI (HCC-2998 colon): > 100 µM
- TGI (SK-OV-3 ovarian): > 100 µM
- TGI (IGROV1 ovarian): > 100 µM

SMILES: Cc1cc(O)c(C(C)(C)C)cc1Sc1cc(C(C)(C)C)c(O)cc1C
- GI50 (PC-3 prostate): 2770 nM
- TGI (PC-3 prostate): 10.6 µM
- GI50 (HOP-92 NSCLC): 2490 nM
- TGI (HOP-92 NSCLC): 6.17 µM
- GI50 (SK-MEL-2 melanoma): 2460 nM
- TGI (SK-MEL-2 melanoma): 4.51 µM
- GI50 (MOLT-4 leukemia): 2670 nM
- TGI (MOLT-4 leukemia): 8.07 µM
- GI50 (UO-31 renal): 2070 nM
- TGI (UO-31 renal): 8.25 µM
- GI50 (HCC-2998 colon): 2450 nM
- TGI (HCC-2998 colon): 5.56 µM
- GI50 (A498 renal): 2210 nM
- TGI (A498 renal): 6.29 µM
- GI50 (NCI-H460 lung): 2890 nM
- TGI (NCI-H460 lung): 7.33 µM
- GI50 (SK-OV-3 ovarian): 3.56 µM
- TGI (SK-OV-3 ovarian): 13.2 µM
- GI50 (IGROV1 ovarian): 2980 nM
- TGI (IGROV1 ovarian): 12.5 µM
